Test system: Aβ40
Assay: Assessment of Aβ levels in rat brain and plasma following BACE1 inhibition (Aβ40 ELISA)
Format: in vivo
Settings: 3 hours post dose, vs vehicle
Protocol: Assessment of Aβ Levels in Rat Brain and Plasma Following BACE1 Inhibition. Animals.
All rat care and experimental procedures were approved by Lundbeck Veterinary Staff, according to Danish legislature. The rats were maintained in a barrier facility with a 12/12-h light/dark cycle and ad libitum food and water access.
Young adult Male Sprague Dawley rats of approximately 250 g weight were purchased from Charles River and received 0-30 mg/kg of vehicle (10% HP betaCD+1M MeSO4, pH 2.5) or test compounds (dissolved in vehicle) only by oral gavage (p.o). The compounds are dosed at a volume of 5 ml/kg. Cohorts of 5-10 animals were established for each treatment condition.
The animals undergoing treatment were closely monitored by veterinary staff for any signs of toxicity. Monitoring parameters included body weight, physical appearance, changes in coat appearance, occurrence of unprovoked behavior, and blunted or exaggerated responses to external stimuli.
At T=180 minutes after initial dosing the animals were stunned and decapitated with a guillotine. Trunk-blood was sampled in EDTA coated tubes after decapitation of the animal. The blood was centrifuged at 2200G at 4° C. for 15 minutes and the plasma was collected and frozen at −80° C. The blood was aliquoted for Aβ ELISA and pharmacokinetic analysis. Immediately following sacrifice, the brain was extracted and split into 2 halves. The right hemibrains were snap frozen on dry ice and stored at −80° C. The left half was dissected; with the front forebrain taken for Aβ ELISA and the remainder used for DMPK analysis. These samples were also snap frozen on dry ice and stored at −80° C. until use for analysis.
The cortex samples were thawed slightly on wet ice before they were homogenized with a small volume dispersing instrument (T10 basic ULTRA-TURRAX®) which was set at speed 5 for approximately 5-7 sec. The tissue was processed in a 10 times volume of the weight, for example 100 mg of tissue was homogenized in 1000 μL of Homogenization buffer. Homogenization buffer: 50 ml Milli Q water+50 nM NaCl+0.2% Diethylamin (DEA)+1 tablet of Complete Protease inhibitor cocktail+1 nM 4-(2-aminoethyl) benzenesulfonyl fluoride hydrochloride irreversible serine protease inhibitor (AEBSF).
After homogenization 450 μL aliquots of the samples were collected into a 1.5 ml Eppendorf tube and placed on wet ice, 0.5% NP-40 (50 ul) was added to all samples and then they were incubated on ice for 30 min. After which all samples were sonicated using an Ultrasonic homogenizer with 20 kHz homogeneous sound (SONOPLUS HD2070, Bandelin Electronic) 10 pulse set at 12-13% power to extract all the Aβ species. The samples were then centrifuged (Ole Dich 157 MPRF Micro centrifuge) at 20000G for 20 minutes at 4° C. After centrifugation […] of the supernatant was pipetted into 6004 microtubes tubes and neutralized with 154 of 1M Tris-HCL buffer.
WAKO 294-62501 Human/Rat Abeta amyloid (40) kit was used for all ELISA analyses. 30 μL plasma samples or 30 μL of the cortex supernatants generated as described above were placed in 600 μL microtubes tubes on wet ice. To this 30 μL of 8M urea (AppliChem A1049, 9025) was added to generate a 2-fold dilution. Both plasma and cortex supernatants were incubated on ice for 30 min. Standard rows were prepared from the standard peptide stock provided in the kit and standard diluent containing 1.6M Urea (200 μL 8M urea+800 μL of standard diluent) and 0.8M urea (400 μL 8M urea+3600 μL Standard diluent). A serial 2-fold dilution of […] from 100 pmol/ml to 0 pmol/L was prepared for the assay.
After incubation with urea, all samples were further diluted by addition of 5 times standard diluent from the Kit. This was done by adding 240 μL Standard Diluent to 60 μL sample/urea mixture, which was then mixed well. 100 μL of each diluted sample was pipetted into designated wells of the ELISA plate in duplicates. The plate was then covered and incubated overnight at 4° C. […]

| SMILES | Aβ40 reduction, Brain Rat (10 mg/kg p.o.) | Aβ40 reduction, Brain Rat (30 mg/kg p.o.) | Aβ40 reduction, Plasma Rat (10 mg/kg p.o.) | Aβ40 reduction, Plasma Rat (30 mg/kg p.o.) |
| --- | --- | --- | --- | --- |
| COc1cnc(C(=O)Nc2ccc(F)c([C@]3(C)CC[C@@](F)(CF)C(N)=N3)c2)cn1 [Compound 5, N-(3-((2S,5S)-6-Amino-5-fluoro-5-(fluoromethyl)-2-methyl-2,3,4,5-tetrahydropyridin-2-yl)-4-fluorophenyl)-5-methoxypyrazine-2-carboxamide] | 56% | 65% | 44% | 46% |
| C[C@@]1(c2cc(NC(=O)c3cnc(C(F)F)cn3)ccc2F)CC[C@@](F)(CF)C(N)=N1 [Compound 11, N-(3-((2S,5S)-6-Amino-5-fluoro-5-(fluoromethyl)-2-methyl-2,3,4,5-tetrahydropyridin-2-yl)-4-fluorophenyl)-5-(difluoromethyl)pyrazine-2-carboxamide] | 21% | 41% | 39% | 60% |
| C[C@@]1(c2cc(NC(=O)c3ccc(F)cn3)ccc2F)CC[C@@](F)(CF)C(N)=N1 [Compound 13, N-(3-((2S,5S)-6-Amino-5-fluoro-5-(fluoromethyl)-2-methyl-2,3,4,5-tetrahydropyridin-2-yl)-4-fluorophenyl)-5-fluoropicolinamide] | 43% | 59% | 38% | 38% |
